Like-named read-outs stand apart in the source and are kept apart here.
Columns and labels:
Hsp90 = assay: 70 kDa Hsp90 fragment after treatment; type: cell-based; details: data not shown
[1] = tested on: MDA-MB-231 (triple negative); assay: MTT proliferation assay, MDA-MB-231; type: cell-based; details: Homo sapiens
Procedure: (§1) Cells (n=2000/well) were seeded in 96 well plates with drug or vehicle (DMSO) on D1 and after 48 h the cell number was determined by MTT assay.

MDA-MB-231 xenograft = assay: Murine breast cancer xenograft; type: in vivo, female nude mice (nu-/nu-)
Procedure: Six-8 weeks old female nude mice (nu^−/nu^−) (Charles River Laboratories International, Inc., MA) were injected into a right mammary fat pad with 1×10^6 log-phase MDA-MB-231. Mice were monitored bi-weekly for weight and tumor growth. When tumors reached a volume of approximately 30-40 mm^3 (calculated according to the formula: volume (mm^3)=(length)(width)^2/2), mice were randomized into three groups (each group n=10). One group of mice was injected daily i.p. with ritonavir (20 mg/Kg in 100 μl of ethanol-Tween 80), the second with M1 (20 mg/Kg in 100 μl of ethanol-Tween 80), and the third with vehicle only (100 μl of ethanol-Tween 80). […] Mice were weighted and their tumors were measured twice a week for the entire duration of the treatment (42 days).
One hour after the last drug/vehicle injection plasma, tumors, lungs, liver, tongue, and skin were collected from each mouse. Plasma was stored at −80° C.; half of the tissues were treated to prepare paraffin blocks, and half were frozen in liquid nitrogen and stored at −80° C.

T47D (ER+) [2] = assay: Annexin V-FITC/PI apoptosis flow cytometry, T47D; type: cell-based
Procedure: (§2) Induction of apoptosis was studied in a MCF7 breast cancer cell line. Apoptotic cells were detected using an Annexin V-FITC/PI apoptosis detection kit (Oncagene, Boston, Mass.). After plating at 5×10^5 in a 100-mm plate, the cells were grown for 48 hours in complete medium in presence of M1, ritonavir, or vehicle (DMSO). The culture and drug exposure conditions for the apoptosis assays were done across a range of 5 to 60 μmol/L M1 and ritonavir. Cells were harvested by trypsin treatment, washed with complete medium to neutralize the trypsin, and stained with PI and Annexin V-FITC. A total of 1×10^4 events were analyzed per assay by FACScan analysis using CellQuest software (Becton Dickinson). Replicate assays were done to confirm the results.
A similar study was performed using T47D (ER+), MDA-MB-231 (triple negative) and SKBR3 (ER−/Her2+) cell lines were performed as above.

T47D (ER+) [3] = assay: MTT proliferation assay, T47D; type: cell-based; details: Homo sapiens
Procedure: as §1

MDA-MB-231 = assay: Western blot protein depletion, MDA-MB-231 (Example 4); type: cell-based
Procedure: Breast cancer cell lines MDA-MB-231, T47D and SKBR3 were used to study depletion of Hsp90 by M1 and ritonavir. Cells were incubated for 48 hours with 1) ritonavir (R) at its IC50 (20 μM for T47D and 40 μM for MDA-MB-231); 2) M1 at ritonavir's IC50; or DMSO (control). Cell extracts were made according to the method of Srirangam et al., Clin Cancer Res. 2006 Mar. 15; 12(6):1883-96. Briefly, nearly confluent cell monolayers were treated with drug or vehicle (DMSO) for 24 or 48 h. Cells were washed with PBS on ice and scraped in a RIPA buffer containing protease inhibitors including MG-132 and phosphatase inhibitors. The cell lysate protein content was determined by μBCA and equal amounts of protein were loaded per lane. Gel electrophoresis by SDS PAGE was performed with equal protein loading per lane (usually 30 μg) and the separated proteins were transferred to 0.45 μm nitrocellulose filters. The transfer was verified by Ponceau stain of the nitrocellulose filters. The filters were probed by chemiluminescent blotting and then exposed to X-ray film. The signal from the protein of interest was normalized to the GAPDH signal. Student's t-test was used to determine the significance of differences.

[4] = tested on: non-transformed human breast epithelial line MCF10A; assay: MTT proliferation assay, MCF10A; type: cell-based; details: MCF-10A, 48 h
Procedure: M1 inhibition of proliferation of MCF7, T47D and MDA-MB-231 cell lines was studied. Cells (n=2000/well) were seeded in 96 well plates with drug or vehicle (DMSO) on D1 and after 48 h the cell number was determined by MTT assay. Each assay was performed with 8 measurements for each data point (See FIG. 1, wherein graph A corresponds to MCF7, graph B corresponds to T47D, and graph C corresponds to MDA-MB-231).
M1 inhibition of proliferation of MCF7 (ER+), T47D (ER+), MDA-MB-231 (triple negative), SKBR3 (ER−/Her2+), and the non-transformed mammary line MCF10A were studied. Cells (n=2000/well) were seeded in 96 well plates with drug or vehicle (DMSO) on D1 and after 48 h the cell number was determined by MTT assay.

[5] = tested on: MCF7 breast cancer cell line; assay: Annexin V-FITC/PI apoptosis flow cytometry, MCF7; type: cell-based; details: for early apoptotic cells: preliminary flow cytometry apoptosis studies; for UR % Late Apoptosis / LR % Early Apoptosis: 48 hours; for fraction of apoptotic cells (early, lower right quadrant): at the ritonavir IC50 (30 μM), FIG. 2
Procedure: Induction of apoptosis can be determined using the Annexin V-FITC/PI apoptosis detection kit (Oncagene, Boston, Mass.). For example, after plating at 5×10^5 in a 100-mm plate, cancer cells can be grown for 48 hours in complete medium in presence of a drug, including a compound or formula 1, and a control, such as vehicle (DMSO). The culture and drug exposure conditions for the apoptosis assays can be done across a range of 5 to 60 μmol/L drug. Cells can be harvested by trypsin treatment, washed with complete medium to neutralize the trypsin, and stained with PI and Annexin V-FITC. The events can then be analyzed using FACScan analysis and CellQuest software (Becton Dickinson). See Example 2.
as §2

MCF7 (ER+) = assay: MTT proliferation assay, MCF7; type: cell-based; details: Homo sapiens
Procedure: as §1

[6] = Example 6, MTT after 48 h, read-out: IC50, proliferation
[7] = Table 1, below the IC50 for both drugs, 45 μM
[8] = Table 3, at the ritonavir IC50, 30 μM
[9] = Table 4, above the IC50 for both drugs, 45 μM
[10] = as quoted in Example 4, read-out: IC50

SMILES | fraction of apoptotic cells (T47D (ER+) [2]) [%] | G1/S regulatory protein Cyclin D1 (MDA-MB-231; P<0.05) | IC50 ([4]; Example 1, MTT after 48 h) [µM] | IC50 ([4]; Example 6, MTT after 48 h) [µM] | early apoptotic cells ([5]; 45 μM) [%] | UR % Late Apoptosis ([5]; Table 1, 45 μM) [%] | LR % Early Apoptosis [5, 7] [%] | LR % Early Apoptosis ([5]; Table 2, at the M1 IC50, 15 μM) [%] | UR % Late Apoptosis ([5]; Table 2, at the M1 IC50, 15 μM) [%] | LR % Early Apoptosis [5, 8] [%] | UR % Late Apoptosis [5, 8] [%] | LR % Early Apoptosis [5, 9] [%] | UR % Late Apoptosis [5, 9] [%] | fraction of apoptotic cells (early, lower right quadrant) [5] [%] | other results
CC(C)c1nc(CN(C)C(=O)NC(C(=O)NC(Cc2ccccc2)CC(O)C(N)Cc2ccccc2)C(C)C)cs1 (stereo not drawn) [M1, desthiazolyl ritonavir] | 20 | reduced | 50 | 45 | 28 | 34.74 | 27.46 | 9.42 | 10.73 | 39.74 | 20.00 | 31.95 | 21.31 | 32 | major 70 kDa Hsp90 fragment (Hsp90): observed; IC50 [1, 6]: 22 µM; tumor growth compared to mice treated with only the vehicle (MDA-MB-231 xenograft; 20 mg/Kg daily i.p., 42 days, FIG. 5A): delayed tumor growth; tumor growth compared to ritonavir (MDA-MB-231 xenograft; 20 mg/Kg daily i.p., 42 days, FIG. 5B): statistically significant delay in tumor growth; reduction of the average tumor size (MDA-MB-231 xenograft; at MTD (20 mg/Kg), 42 days of follow-up, P<0.05): 2 -fold; IC50 (T47D (ER+) [3]; [6]): 10 µM; reducing Hsp90 levels (MDA-MB-231; 48 hours, at ritonavir's IC50 (40 μM)): more potent than ritonavir; reducing total Akt, phospho-Akt, GSK3beta, c-src, and survivin (MDA-MB-231; versus ritonavir, P<0.05): more potent; IC50 (MCF7 (ER+); MCF7, Example 6, MTT after 48 h, read-out: IC50, proliferation): 15 µM
CC(C)c1nc(CN(C)C(=O)N[C@H](C(=O)N[C@@H](Cc2ccccc2)C[C@H](O)[C@H](Cc2ccccc2)NC(=O)OCc2cncs2)C(C)C)cs1 [ritonavir] | 13 | reduced | 35 | 31 | 14 | 23.0 | 14.12 | 13.83 | 11.16 | 15.11 | 7.95 | 17.10 | 7.30 | 17 | 70 kDa Hsp90 fragment, less abundant than with M1 (Hsp90): 3 -fold; IC50 [1, 10]: 40 µM; effect on MDA-MB-231 xenograft (MDA-MB-231 xenograft; at its MTD (40 mg/Kg)): inhibits; effect on MDA-MB-231 xenograft (MDA-MB-231 xenograft; half its MTD (20 mg/Kg)): ineffective; IC50 (T47D (ER+) [3]; 48 h, read-out: IC50, proliferation): 23 µM; IC50 (T47D (ER+) [3]; [10]): 20 µM; IC50 (MCF7 (ER+); MCF7, 48 h, read-out: IC50, proliferation): 28 µM; IC50 (MCF7 (ER+); MCF7, as quoted in Example 2, read-out: IC50): 30 µM

Source: patent publication US8501792B2, “Treating cancer with desthiazolyl ritonavir” (priority 2008, dated 2013)
